Data reported in PMC5024298, “The coiled-coil domain of zebrafish TRPM7 regulates Mg·nucleotide sensitivity” (Scientific Reports, 2016).
Where “and” joins values, the source holds several entries; their conditions need not be identical. Equal entries are not always repeated. Where two headings read alike, the source gives them in different places.

What was measured:
[1] = tested on: zebrafish TRPM7 (drTRPM7) wild type; assay: Whole-cell patch-clamp of tetracycline-induced HEK293 T-REx cells overexpressing wild type drTRPM7; format: cell-based, zebrafish (Danio rerio); conditions: for Biophysical characteristic: effect on drTRPM7 (Table 1): heterologous drTRPM7; for effect of extracellular divalent application on monovalent outward currents: 10 mM divalent replacing 10 mM Ca^2+, NMDG external solution; for IC50: 200 s
Experimental: (§1) HEK293 T-REx cells stably expressing HA-tagged Danio rerio TRPM7 (drTRPM7) wild type or mutants were cultured in DMEM with 10% FBS and 5 μg/ml of blasticidin and 200 μg/ml hygromycin. HEK293 T-REx cells were incubated at 37 °C and 5% CO2. Expression was induced by adding 1 μg/ml tetracycline to the growth media 20 hours before experiments. […] Chicken DT40 wild type and DT40 cells with a TRPM7 […] (DT40 TRPM7-KO) cells were maintained as described before.
(§2) Patch-clamp experiments were performed in the tight-seal whole-cell configuration at room temperature (20–25 °C). Whole-cell currents were recorded with the EPC9 (HEKA, Bellmore, NY) and Patchmaster v2.4 (HEKA). Voltages were corrected for a liquid junction potential of 10 mV. The patch pipettes were pulled from borosilicate glass (Sutter Instruments, USA) with resistances of 2.5–3.5 MΩ when filled with internal solution. The voltage ramp protocol ranged from −100 mV to 100 mV over 50 ms and applied at 0.5 Hz. Current amplitudes were measured at −80 mV and +80 mV. The holding potential was set to 0 mV in all experiments. Currents were filtered at 2.9 kHz and digitized at 10 kHz. Cells were seeded on glass cover slips 1–2 days before the day of the experiment. Cover slips were submerged in the external solution at room temperature (20–25 °C). Cover slips and external solutions were replaced every hour.
The standard external solution contained (in mM): 140 NaCl, 2.8 KCl, 2 MgCl2, 11 glucose, 10 HEPES, and 1 CaCl2. The divalent profile experiments were performed using a modified external solution that contained (in mM): 140 N-methyl-D-glucamine (NMDG), 11 glucose, 10 HEPES and 10 CaCl2. For application, 10 mM CaCl2 was replaced with 10 mM of the respective divalent under study. The standard internal solution contained (in mM): 140 Cs-glutamate, 8 NaCl, 10 HEPES, and 10 Cs-BAPTA. pH was adjusted to 7.2 and osmolarity was kept between 290–330 mOsm. The solutions for pH below 6.0 contained (in mM): 140 NaCl, 2.8 KCl, 2 MgCl2, 11 glucose, 10 MES, and 1 CaCl2. For the Mg·ATP dose-response analysis, the internal solution contained (in mM): 120 Cs-glutamate, 8 NaCl, 10 HEPES, 10 Cs-BAPTA. Na·ATP and MgCl2 was used to achieve appropriate concentrations of free intracellular Mg^2+ and Mg·ATP as calculated using WebmaxC Standard (http://www.stanford.edu/~cpatton/webmaxcS.htm).
Statistical analysis was performed using Fitmaster (version 2.69; HEKA, Germany) and Igor software (version 6.34; WaveMetrics, USA). The p-values were calculated using Microsoft Excel version 14.1.2 using the two-tailed paired Student’s T-test. Data were normalized to cell size and expressed as current density (pA/pF), or normalized to the time point right before application (I/I[time]s). […] Dose-response fits were assessed using the fit function f(x) = ([Maximum current] *(1/(1 + ([Estimated IC50]/x)^[Hill coefficient])). The IC50 or EC50 values calculated with the dose-response curve function were reported with ± standard deviation (S.D.).
To study channel biophysics, HA-tagged wild type zebrafish TRPM7 (drTRPM7) was cloned and stably expressed in HEK293 T-REx cells under tetracycline-inducible promotor (see methods; ref. [3]). […] Both clones were also tested for drTRPM7 expression using the whole-cell patch-clamp technique.

[2] = tested on: endogenous TRPM7-like currents in ZFL cells; assay: Whole-cell patch-clamp of endogenous TRPM7-like currents in zebrafish liver cell line ZFL; format: cell-based
Experimental: as §1, §2

Mammalian TRPM7 = conditions: cited from earlier work
Human TRPM6 = conditions: cited from earlier work
human TRPM7 (hTRPM7) = conditions: cited from earlier work
drTRPM7-1478 = assay: Whole-cell patch-clamp of HEK293 T-REx cells overexpressing truncation mutant drTRPM7-1478; format: cell-based, zebrafish (Danio rerio); conditions: +80 mV, 200 s; Hill = 2, 1.5 (Fig. 6 legend); read-out: IC50 of internal Mg^2+
Experimental: Patch-clamp experiments were performed in the tight-seal whole-cell configuration at room temperature (20–25 °C). Whole-cell currents were recorded with the EPC9 (HEKA, Bellmore, NY) and Patchmaster v2.4 (HEKA). Voltages were corrected for a liquid junction potential of 10 mV. […] Current amplitudes were measured at −80 mV and +80 mV. […]
(§3) The standard external solution contained (in mM): 140 NaCl, 2.8 KCl, 2 MgCl2, 11 glucose, 10 HEPES, and 1 CaCl2. […] Na·ATP and MgCl2 was used to achieve appropriate concentrations of free intracellular Mg^2+ and Mg·ATP as calculated using WebmaxC Standard (http://www.stanford.edu/~cpatton/webmaxcS.htm).

drTRPM7-1258 = assay: Whole-cell patch-clamp of HEK293 T-REx cells overexpressing truncation mutant drTRPM7-1258; format: cell-based, zebrafish (Danio rerio)
Experimental: (§4) Patch-clamp experiments were performed in the tight-seal whole-cell configuration at room temperature (20–25 °C). Whole-cell currents were recorded with the EPC9 (HEKA, Bellmore, NY) and Patchmaster v2.4 (HEKA). Voltages were corrected for a liquid junction potential of 10 mV. The patch pipettes were pulled from borosilicate glass (Sutter Instruments, USA) with resistances of 2.5–3.5 MΩ when filled with internal solution. The voltage ramp protocol ranged from −100 mV to 100 mV over 50 ms and applied at 0.5 Hz. Current amplitudes were measured at −80 mV and +80 mV. The holding potential was set to 0 mV in all experiments. Currents were filtered at 2.9 kHz and digitized at 10 kHz. Cells were seeded on glass cover slips 1–2 days before the day of the experiment. […]
as §3

drTRPM7-1178 = assay: Whole-cell patch-clamp of HEK293 T-REx cells overexpressing truncation mutant drTRPM7-1178; format: cell-based, zebrafish (Danio rerio)
Experimental: as §4, §3

[3] = 1 mM intracellular Mg·ATP, 250 μM free Mg^2+

For `NCCOB(c1ccccc1)c1ccccc1` [2-APB, 2-aminoethyl diphenylborinate, reference compound], the “effect of 2-APB on drTRPM7 currents” value ([1]; concentrations of 300 μM and above) was “greatly enhanced”, the “Biophysical characteristic: effect on drTRPM7 (Table 1)” value [1] was “Potentiation” and the “effect of 2-APB on drTRPM7 currents” value ([1]; lower concentrations (30 μM and 100 μM)) was “small but statistically not significant inhibitory effect”. For the same compound, the “effect of 2-APB on drTRPM7 currents” value ([1]; various concentrations, up to 500 μM, external application) was “facilitated rather than inhibited”, the “facilitation of inward and outward drTRPM7-like currents” value ([2]; 500 μM 2-APB applied at 400 s) was 50% and the “effect of 2-APB on mammalian TRPM7” value (Mammalian TRPM7; Table 1) was “Inhibition[12]”. The “effect of 2-APB on human TRPM6” value (Human TRPM6; Table 1) was “Potentiation[12]”, the “effect on human TRPM6 currents” value (Human TRPM6) was “enhances” and the “effect of 2-APB on hTRPM7 currents” value (human TRPM7 (hTRPM7)) was “inhibits”.

For `[Mg+2]` [Mg^2+, magnesium], the “effect of extracellular divalent application on monovalent outward currents” value (shortened to “effect … on monovalent outward currents”) ([1]; +80 mV) was “almost completely suppressed”, the IC50 ([1]; current at +80 mV, Hill coefficient 1, read-out: IC50 of intracellular free Mg^2+ on drTRPM7 currents) was 0.778 mM and the IC50 (drTRPM7-1478) was 450 ± 0.55 µM. For the same compound, the IC50 (drTRPM7-1258; +80 mV, 200 s, Hill = 2, read-out: IC50 of internal Mg^2+) was 250 ± 0.52 µM, the IC50 (drTRPM7-1178; +80 mV, 200 s, Hill = 3, read-out: IC50 of internal Mg^2+) was 840 ± 158 µM and the “effect of intracellular free Mg^2+ on drTRPM7-like current development” value ([2]; 3.2 mM free Mg^2+ in pipette solution) was “completely suppressed”. The IC50 (Mammalian TRPM7; Table 1, read-out: IC50 of Mg^2+ on mammalian TRPM7) was 720 µM, the IC50 (Mammalian TRPM7; read-out: IC50 of intracellular Mg^2+ on heterologous and/or native mouse and human TRPM7) was ~750 µM and the IC50 (Human TRPM6; Table 1, read-out: IC50 of Mg^2+ on human TRPM6) was 29 µM.

For `Nc1ncnc2c1ncn2[C@@H]1O[C@H](COP(=O)(O)OP(=O)([O-])OP(=O)([O-])O)[C@@H](O)[C@H]1O.[Mg+2]` [Mg·ATP, Mg·adenosine triphosphate], the IC50 ([1]; internal free Mg^2+ 250 μM, +80 mV, Hill coefficient 1, read-out: IC50 of intracellular Mg·ATP on drTRPM7 currents) was 1.16 mM and 1.2 mM, the IC50 ([1]; internal free Mg^2+ 250 μM, +80 mV, Hill coefficient set to 1, read-out: IC50 of intracellular Mg·ATP on drTRPM7 currents (Fig. 1E legend)) was 1.16 ± 0.7 mM and the “effect of Mg·ATP on drTRPM7-1258 currents” value (drTRPM7-1258; [3]) was “fully inhibited”. The “sensitivity to intracellular Mg·ATP of drTRPM7-1258 compared to drTRPM7-1478 and wild type” value (drTRPM7-1258; ratio of IC50 values) was “about 4 fold”, the “effect of Mg·ATP on drTRPM7-1178 currents” value (drTRPM7-1178; [3]) was “did not seem to have any effect” and the “sensitivity of drTRPM7-1178 currents to intracellular Mg·ATP” value (drTRPM7-1178; up to 6 mM Mg·ATP, 250 μM free Mg^2+) was “completely lost any sensitivity”. For the same compound, the IC50 (Mammalian TRPM7; Table 1, read-out: IC50 of Mg·ATP on mammalian TRPM7) was 2000 µM and the “effect on human TRPM6 currents” value (Human TRPM6) was “No effect[14]”.

In the case of `C=C1CC/C=C(\C)CC[C@@H]2C([C@H](C/C=C(\C)COC(C)=O)OC(C)=O)=CO[C@H](OC(C)=O)[C@@H]12` [Waixenicin A, reference compound], the “effect of waixenicin A on drTRPM7 currents” value ([1]; 10 μM waixenicin A, 410 μM internal free Mg / 780 μM free Mg^2+ (Fig. 4 legend)) is listed as “no effect”, the “Biophysical characteristic: effect on drTRPM7 (Table 1)” value [1] is listed as “No effect” and the “effect of waixenicin A on mammalian TRPM7” value (Mammalian TRPM7; Table 1) is listed as “Inhibition[13]”. The “effect on human TRPM6 currents” value (Human TRPM6) was “No effect[14]” and the “effect on human TRPM6 currents” value (Human TRPM6; listed as waixenicin A) was “no significant effect”.

For `[Ba+2]` [barium], the “effect … on monovalent outward currents” value ([1]; +80 mV) was “facilitated outward currents”.

In the case of `[Cd]` [cadmium], the “effect … on monovalent outward currents” value ([1]; +80 mV) is reported as “facilitated outward currents”.

For `[Co+2]` [cobalt], the “effect … on monovalent outward currents” value ([1]; +80 mV) was “almost completely suppressed”.

With `[Ni+2]` [nickel] the “effect … on monovalent outward currents” value ([1]; +80 mV) was “almost completely suppressed”.

For `[Sr+2]` [strontium], the “effect … on monovalent outward currents” value ([1]; +80 mV) was “facilitated outward currents”.
